Measured values as given in patent US20190112357A1, “PREVENTION OF PROTEIN DISULFIDE BOND REDUCTION” (MedImmune, LLC, priority 2016, published 2019).

Tests used:
[1] = system: TrxR1 purified from a day 14 culture of cell line B; assay: DTNB reductase activity of 2'5'-ADP column fractions from cell line B, TrxR1; assay type: biochemical, Chinese Hamster; conditions: 0.5 μM ATG, fractions B1-C2, depending on the fraction
Description: Reductases were purified from cell samples to verify the specificity of reductase inhibitors. A day 14 culture of mAb B (IgG antibody produced by CHO cell line B CHO-K1SV) was pelleted by centrifugation, washed once with PBS and re-suspended in 50 mM tris buffer, pH 7.5. The solution was homogenized and filtered at 0.2 μm prior to loading onto a column of 2′5′-ADP Sepharose 4B resin. The reductases were eluted using a linearly increasing gradient of 0 to 0.3 mM NADP^+ in the same tris buffer (Yadav, et al., Parasitol. Int., 62:193-198, 2013). The reductase activity of the collected fractions was determined using the assay described in Example 3. Additionally, western blot analysis was used to detect TrxR1 and GR in the collected fractions.
The reductase-specific inhibitors were evaluated above using purified recombinant mammalian enzymes from rat and human. […] The added activity from the two systems was approximately equal to the total activity detected in the absence of an inhibitor for each fraction. […] That is, if the reductase inhibitors were non-specifically inhibiting both enzymatic systems, the added reductase activity would have been […] than the reductase activity detected without any added inhibitor. […] The fractions with reductase activity were pooled and further evaluated at the inhibitor concentrations assayed in the antibody reduction assay.

thioredoxin system = assay: Reductase activity assay, day 14 culture samples, thioredoxin system; assay type: biochemical, Chinese Hamster; conditions: day 14, 0.5 μM ATG
Description: The total reductase activity was determined in the absence of any inhibitor. […] Thus, the difference in activity between a sample with ATG, and a sample without any inhibitor, indicates the amount of reductase activity contributed the thioredoxin system. […] Thus, the difference in reductase activity between a sample with 2-AAPA, and a sample without any inhibitor, indicates the amount of reductase activity contributed by the glutathione system. Although ATG and 2-AAPA are provided as exemplary specific inhibitors, other specific inhibitors discussed above can be employed in this assay instead of ATG and 2-AAPA.
Briefly, culture samples were thawed on ice. […] The samples were then allowed to incubate 5 minutes.
Activity of the reductases was calculated as follows. […] The activity was then calculated by the following equation: […]
The reductase activities of the thioredoxin and glutathione systems were evaluated in day 14 culture samples of the same CHO cell lines A, B, C, and D, using the previously evaluated specific inhibitors 2-AAPA and ATG at 100 μM and 0.5 μM respectively. Data in FIG. 6A were normalized to viable cell density. Cell lines A, B, and C were described in Example 6, above. Cell line D is the cell line CHO CAT-S, and is stably transfected to produce an IgG1 mAb (mAb D).

recombinant TrxR1/Trx1 = biological target: T1, recombinant TrxR1/Trx1 (Rattus norvegicus, UniProt O89049); assay: DTNB reductase activity assay, recombinant TrxR1/Trx1; conditions: ATG concentrations higher than 0.1 μM
T1 sequence (O89049 1-499): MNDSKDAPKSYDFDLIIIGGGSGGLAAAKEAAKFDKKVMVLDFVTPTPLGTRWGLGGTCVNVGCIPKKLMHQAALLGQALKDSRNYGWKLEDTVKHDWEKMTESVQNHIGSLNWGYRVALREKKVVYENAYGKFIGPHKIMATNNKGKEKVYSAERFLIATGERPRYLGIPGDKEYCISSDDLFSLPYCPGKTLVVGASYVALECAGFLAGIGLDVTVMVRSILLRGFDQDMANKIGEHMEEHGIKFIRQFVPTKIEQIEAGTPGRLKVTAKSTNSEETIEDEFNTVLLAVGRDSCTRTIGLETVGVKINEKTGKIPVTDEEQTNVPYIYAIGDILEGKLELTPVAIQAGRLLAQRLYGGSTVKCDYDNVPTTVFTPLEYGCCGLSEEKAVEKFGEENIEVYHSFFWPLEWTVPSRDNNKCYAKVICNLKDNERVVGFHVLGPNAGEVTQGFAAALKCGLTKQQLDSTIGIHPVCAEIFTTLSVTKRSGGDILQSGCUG
Description: This assay allows determination of the total reductase activity in a culture sample, as well as determination of the individual contribution made by thioredoxin reductase and glutathione reductase to the total reductase activity of the sample. In this assay, culture samples (cells+media) from 3 L bioreactors were stored frozen until the end of the run, after which the samples were centrifuged to remove the cell pellet then the resulting supernatant was diluted 20-fold into 100 mM tris buffer, pH 7.4, containing 0.4 mM NADPH, 0.15 mM oxidized glutathione, and 3 mM DTNB with the indicated concentration of specific reductase inhibitor. Addition of the enzyme specific inhibitors to the samples allowed the total reductase activity to be determined as well as the individual activity from the thioredoxin and glutathione systems. Reductase activity was monitored by spectroscopic measurement of the increase in absorbance at a wavelength of 412 nm. […] The detected increase in absorbance at this wavelength is caused by the reduction of DTNB (Arnér, ESJ, Biochim. Biophys. Acta—Gen. Subj., 1790:495-526, 2009).
Briefly, culture samples were thawed on ice. […] The absorbance at a wavelength of 412 nm was determined every 30 seconds, for 20 minutes.
Activity of the reductases was calculated as follows. The change in absorbance per minute (Δ412) for each well was determined. […]

[2] = system: TrxR1 purified from CHO cell cultures; assay: mAb B reduction by pooled CHO fractions with NADPH and Trx1; assay type: biochemical, Chinese Hamster; conditions: 3 μM Cu^2+ or 100 μM ATG, overnight room temperature
Description: Purified mAb B was spiked into several solutions containing different combinations of the pooled fractions (PF), recombinant Trx1, GSSG, NADPH, ATG, and Cu^2+. The solutions were incubated at room temperature overnight and the amount of intact antibody remaining was determined by capillary electrophoresis according to the protocol described above. In the first set of samples, purified mAb B was spiked into the pooled fractions with, and without, NADPH.
The third set of solutions contained the pooled enzymes, NADPH, Trx1, and either no inhibitor, 3 μM Cu^2+, or 100 μM ATG. […] In the final sample as a control, mAb B was spiked into a solution containing NADPH, Trx1, and GSSG.

## OC[C@H]1O[C@H]([S-])[C@H](O)[C@@H](O)[C@@H]1O.[Au+] [ATG, aurothioglucose]
[1]
  share of reductase activity from TrxR1, determined with the inhibitor: 60-75%
Thioredoxin system; cell line A
  share of total reductase activity from the thioredoxin system: 35%
Thioredoxin system; cell line B
  share of total reductase activity from the thioredoxin system: 60%
Thioredoxin system; cell line C
  share of total reductase activity from the thioredoxin system: 87%
Thioredoxin system; cell line D
  share of total reductase activity from the thioredoxin system: 60%
Recombinant TrxR1/Trx1
  TrxR1/Trx1 reductase activity: negligible
[2]
  antibody reduction in pooled enzymes, NADPH, Trx1: completely prevented reduction
